Where a name gives a salt, the structure may show the parent alone. Read-outs that look alike come from different tables or passages of the source.

The nature of this assay: standard maximal electroshock test (MES), anticonvulsant activity. The format is in vivo. The settings on record: tested as HCl salt. How it is done:
The anticonvulsant activity of certain compounds of the present invention were determined by a standard maximal electroshock test (MES); that described by L.A.Woodbury and V.D.Davenport, Arch. Int.Pharmacodyn, 1952 92 97.

Setting [1] is: ip, I.P administration, read-out: ED50.I.P.
Setting [2] is: po, P.O administration, read-out: ED50.P.O.

As for `Fc1ccccc1Cn1nnc2c(NC3CC3)nccc21` [Example 2, 4-(cyclopropylamino)-1-(2-fluorobenzyl)-1H-1,2,3-triazolo [4,5-c] pyridine], the ED50 (in general, the dose at which the effect has come halfway, by size or by number of responders) worked out at 4.8 mg/kg under setting [1] and 6.3 mg/kg under setting [2].

Consider `CNc1nccc2c1nnn2Cc1cc(F)ccc1F` [Example 7, 1-(2,5-difluorobenzyl)-4-(methylamino)-1H-1,2,3-triazolo [4,5-c]pyridine], for which the ED50 by setting is: under setting [1], 5 mg/kg; under setting [2], 4.3 mg/kg.

Consider `CNc1nccc2c1nnn2Cc1ccccc1` [Example 8, 1-benzyl-4-(methylamino)-1H-1,2,3-triazolo[4.5-c]pyridine], for which the ED50 was found to be 7.8 mg/kg under setting [1] and 8.9 mg/kg under setting [2].

As for `CN(C)c1nccc2c1nnn2Cc1ccccc1F` [Example 4, 4-(dimethylamino)-1-(2-fluorobenzyl)-1H-1,2,3-triazolo [4,5-c]pyridine], the ED50 under setting [1] came to 6.3 mg/kg and the ED50 under setting [2] came out at 6.6 mg/kg.

On to `CCNc1nccc2c1nnn2Cc1ccccc1F` [Example 3, 4-(ethylamino)-1-(2-fluorobenzyl)-1H-1,2,3-triazolo[4,5-c] pyridine], for which the ED50 reads like this: under setting [1], 8.3 mg/kg; under setting [2], 10.3 mg/kg.

With `CNc1nccc2c1nnn2Cc1c(F)cccc1F` [Example 5, 1-(2,6-difluorobenzyl)-4-(methylamino)-1H-1,2,3-triazolo [4,5-c] pyridine], the ED50 was 7.8 mg/kg under setting [1] and 5.3 mg/kg under setting [2].

For the molecule `Fc1cccc(F)c1Cn1nnc2c(NC3CC3)nccc21` [Example 10, 4-(cyclopropylamino)-1-(2,6-difluorobenzyl)-1H-1,2,3-triazolo[4,5-c]pyridine], the ED50 reads like this: under setting [1], 4.1 mg/kg; under setting [2], 8.1 mg/kg.

Regarding `CNc1nccc2c1nnn2Cc1ccccc1F` [Example 1, 1-(2-fluorobenzyl)-4-(methylamino)-1H-1,2,3-triazolo[4,5-c]pyridine], the ED50 is, setting by setting: under setting [1], 4.5 mg/kg; under setting [2], 4.4 mg/kg.

Take `Nc1nccc2c1nnn2Cc1c(F)cccc1F` [Example 6, 4-amino-1-(2,6,-difluorobenzyl)-1H-1,2,3-triazolo [4,5-c]pyridine hydrochloride]: the ED50 came to 6.3 mg/kg under setting [1] and 3.7 mg/kg under setting [2].

The record behind these values is patent EP0399653B1, “Anticonvulsant triazolo[4,5-c]pyridine derivatives” (THE WELLCOME FOUNDATION LIMITED, priority 1989, dated 1990).
